Measurements as given in the supplement of paper PMC4862054.

Assays:
Experiment in all cases: normalised response (% of control), CellTiter-Glo; higher = more viable cells (100 = DMSO, 0 = benzethonium chloride kill control)
Conditions in all cases: incubation time: 72 h
HCC1143 = tested on: HCC1143
In short: (§1)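 Values are normalised signals, each belonging to one concentration of the series. Breast cancer cells (20 µl suspension) were seeded into 384-well plates with compound at 5 concentrations in 10-fold steps over a compound-specific 10,000-fold range and incubated 72 h. Readouts were CellTox Green fluorescence (485/520 nm), then CellTiter-Glo luminescence after 10 min at room temperature, with each plate set to 0.1 % DMSO as 100 and a positive kill control as 0.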

MFM-223 = tested on: MFM-223
In short: as §1

HCC1599 = tested on: HCC1599
In short: as §1

DU-4475 = tested on: DU-4475
In short: as §1

MDA-MB-436 = tested on: MDA-MB-436
In short: as §1

CAL-51 = tested on: CAL-51
In short: as §1

MDA-MB-453 = tested on: MDA-MB-453
In short: as §1

SK-BR-3 = tested on: SK-BR-3
In short: as §1

CAL-120 = tested on: CAL-120
In short: as §1

Hs578T = tested on: Hs578T
In short: as §1

BT-474 = tested on: BT-474
In short: as §1

MDA-MB-468 = tested on: MDA-MB-468
In short: as §1

CAL-85-1 = tested on: CAL-85-1
In short: as §1

HCC1937 = tested on: HCC1937
In short: as §1

MDA-MB-231 = tested on: MDA-MB-231
In short: as §1

HDQ-P1 = tested on: HDQ-P1
In short: as §1

MCF-10A = tested on: MCF-10A
In short: as §1

BT-549 = tested on: BT-549
In short: as §1

CAL-148 = tested on: CAL-148
In short: as §1

Structure (SMILES)	normalised response (HCC1143) [%]	normalised response (MFM-223) [%]	normalised response (HCC1599) [%]	normalised response (DU-4475) [%]	normalised response (MDA-MB-436) [%]	normalised response (CAL-51) [%]	normalised response (MDA-MB-453) [%]	normalised response (SK-BR-3) [%]	normalised response (CAL-120) [%]	normalised response (Hs578T) [%]	normalised response (BT-474) [%]	normalised response (MDA-MB-468) [%]	normalised response (CAL-85-1) [%]	normalised response (HCC1937) [%]	normalised response (MDA-MB-231) [%]	normalised response (HDQ-P1) [%]	normalised response (MCF-10A) [%]	normalised response (BT-549) [%]	normalised response (CAL-148) [%]
CCN(CC)CCCC(C)Nc1ccnc2cc(Cl)ccc12 (stereo unspecified) [Chloroquine] (100 nM)	103	100	46	92.9	103	71.1	91.5	88.3	98.8	102	99.9	91.7	94.5	103	96.7	102	93.7	103	88.6
CC1(COc2ccc3c(c2)ncn3-c2ccc3cccc(N4CCC(N)CC4)c3n2)COC1 [Crenolanib] (1 nM)	98.5	99.5	105	108	97.9	123	90.9	106	98.5	103	102	102	96.6	103	98.7	102	116	110	102
CC(C)(C)c1nc(-c2cccc(NS(=O)(=O)c3c(F)cccc3F)c2F)c(-c2ccnc(N)n2)s1 [Dabrafenib] (0.25 nM)	108	104	98.8	101	101	109	104	108	98.9	101	98.9	99.7	103	106	104	104	109	109	116
Cn1cc(C2=C(c3cn(C4CCN(Cc5ccccn5)CC4)c4ccccc34)C(=O)NC2=O)c2ccccc21 [Enzastaurin] (10 nM)	103	104	96.3	103	107	92.2	107	104	92.7	100	99.6	96.5	107	95.5	104	99.4	106	92.4	96.2
Cc1nc(C(=O)NCC(=O)O)c(O)c2ccc(Oc3ccccc3)cc12 [FG-4592] (1 nM)	108	102	100	103	96.2	89.8	109	111	98.5	103	94.7	98.4	98.9	102	101	106	111	104	102
Cc1nc(C(=O)NCC(=O)O)c(O)c2ccc(Oc3ccccc3)cc12 [FG-4592] (10 nM)	105	107	104	101	95	90.5	109	109	100	103	104	97.3	101	105	101	103	111	99.1	117
CC(C)(C)NC(=O)[C@H]1CC[C@H]2[C@@H]3CC[C@H]4NC(=O)C=C[C@]4(C)[C@H]3CC[C@]12C [Finasteride] (10 nM)	108	97.8	114	102	95.9	80.6	113	121	99.5	101	98.3	106	98.7	103	104	97.3	104	96.4	101
CC(C)C[C@H](NC(=O)[C@@H](COC(C)(C)C)NC(=O)[C@H](Cc1ccc(O)cc1)NC(=O)[C@H](CO)NC(=O)[C@H](Cc1c[nH]c2ccccc12)NC(=O)[C@H](Cc1cnc[nH]1)NC(=O)[C@@H]1CCC(=O)N1)C(=O)N[C@@H](CCCNC(=N)N)C(=O)N1CCC[C@H]1C(=O)NNC(N)=O [Goserelin] (10 nM)	99.2	94.2	98.5	100	98	92.5	102	119	101	99.5	98	96.1	93.8	93.7	94	101	102	99.4	94.6
O=C(O)CNC(=O)c1c(O)c2ccccc2n(Cc2ccccc2)c1=O [IOX-2] (5 nM)	94.8	92.5	103	97.3	95.4	99.5	104	95.3	93.9	95	99.3	93.6	95.9	95	94.5	100	106	95.9	94.5
C=CCn1c(=O)c2cnc(Nc3ccc(N4CCN(C)CC4)cc3)nc2n1-c1cccc(C(C)(C)O)n1 [MK1775] (10 nM)	92.4	88.8	107	93.2	88.6	121	81	76.1	93.1	101	87.5	90.4	93.2	94.5	90.5	94.4	83	98.9	79.3
CN(C)C(=N)NC(=N)N [Metformin] (10 nM)	98	88.1	93.1	87.8	91.7	86.8	80.5	76.9	103	93.2	92.3	89.4	99.6	90.6	96.5	97.7	77	98.3	97.7
CN(Cc1cnc2nc(N)nc(N)c2n1)c1ccc(C(=O)N[C@@H](CCC(=O)O)C(=O)O)cc1 [Methotrexate] (5 nM)	107	108	88.1	105	97.6	103	116	118	99.5	109	100	108	101	107	109	102	107	117	105
CN(Cc1cnc2nc(N)nc(N)c2n1)c1ccc(C(=O)N[C@@H](CCC(=O)O)C(=O)O)cc1 [Methotrexate] (50 nM)	84.5	108	51.9	88.4	86.1	63.7	114	74.7	32.5	47.6	101	92.8	76.7	33	100	35.5	111	100	109
CO[C@@H]1[C@H](N(C)C(=O)c2ccccc2)C[C@H]2O[C@]1(C)n1c3ccccc3c3c4c(c5c6ccccc6n2c5c31)C(=O)NC4 [Midostaurin] (10 nM)	98.9	96.7	123	97.5	104	97.2	96.7	96.1	96	99.4	98.6	106	100	95.3	102	97.5	96.3	107	105
CO[C@@]12[C@H](COC(N)=O)C3=C(C(=O)C(C)=C(N)C3=O)N1C[C@@H]1N[C@@H]12 [Mitomycin C] (10 nM)	96.3	97.2	82.3	98.9	91	105	89	94.4	96.9	98.7	92.7	92.8	96.5	101	97	96.7	96.3	98.3	86.7
CCNC(=O)c1noc(-c2cc(C(C)C)c(O)cc2O)c1-c1ccc(CN2CCOCC2)cc1 [NVP-AUY922] (1 nM)	104	104	108	105	104	106	113	106	106	101	114	107	105	102	103	104	106	97.2	104
CC1(C)CCC(c2ccc(Cl)cc2)=C(CN2CCN(c3ccc(C(=O)NS(=O)(=O)c4ccc(N[C@H](CCN5CCOCC5)CSc5ccccc5)c(S(=O)(=O)C(F)(F)F)c4)cc3)CC2)C1 [Navitoclax] (10 nM)	95.9	96.7	103	99.4	98	115	100	77.3	91.7	99.7	94.5	87.6	97	101	98.1	87.5	98.6	99.5	90
Cc1cn(-c2cc(NC(=O)c3ccc(C)c(Nc4nccc(-c5cccnc5)n4)c3)cc(C(F)(F)F)c2)cn1 [Nilotinib] (10 nM)	96.5	97.3	104	106	94.1	85.8	103	105	88.6	94	100	98.8	100	96.5	91.2	93.5	104	103	92.7
CC[C@H](CO)Nc1nc(NCc2ccccc2)c2ncn(C(C)C)c2n1 [Seliciclib] (1 nM)	101	104	92.9	106	104	88.7	104	107	96.7	100	100	98	100	97.3	107	102	97.1	97.2	106
